# Data reported in the kinase profiling compilation of Christmann-Franck et al. (2016).
# Legend:
# Assay in all cases: radiometric filter-binding kinase assay
# [1] = molecular target: PKN2 (human) (UniProt Q16513)
# [2] = molecular target: IRAK4 (human) (UniProt Q9NWZ3)
# [3] = molecular target: MAPK3 (human) (UniProt P27361)
# [4] = molecular target: PAK7 (human) (UniProt Q9P286)
# [5] = molecular target: PAK4 (human) (UniProt O96013)
# [6] = molecular target: RIPK2 (human) (UniProt O43353)
# [7] = test system: SGK1 (human), O00141 [S422D]
# [8] = molecular target: RPS6KA5 KD1 KD2 (human) (UniProt O75582)
# Sequence of RPS6KA5 KD1 KD2 (human) (O75582 whole entry, looked up): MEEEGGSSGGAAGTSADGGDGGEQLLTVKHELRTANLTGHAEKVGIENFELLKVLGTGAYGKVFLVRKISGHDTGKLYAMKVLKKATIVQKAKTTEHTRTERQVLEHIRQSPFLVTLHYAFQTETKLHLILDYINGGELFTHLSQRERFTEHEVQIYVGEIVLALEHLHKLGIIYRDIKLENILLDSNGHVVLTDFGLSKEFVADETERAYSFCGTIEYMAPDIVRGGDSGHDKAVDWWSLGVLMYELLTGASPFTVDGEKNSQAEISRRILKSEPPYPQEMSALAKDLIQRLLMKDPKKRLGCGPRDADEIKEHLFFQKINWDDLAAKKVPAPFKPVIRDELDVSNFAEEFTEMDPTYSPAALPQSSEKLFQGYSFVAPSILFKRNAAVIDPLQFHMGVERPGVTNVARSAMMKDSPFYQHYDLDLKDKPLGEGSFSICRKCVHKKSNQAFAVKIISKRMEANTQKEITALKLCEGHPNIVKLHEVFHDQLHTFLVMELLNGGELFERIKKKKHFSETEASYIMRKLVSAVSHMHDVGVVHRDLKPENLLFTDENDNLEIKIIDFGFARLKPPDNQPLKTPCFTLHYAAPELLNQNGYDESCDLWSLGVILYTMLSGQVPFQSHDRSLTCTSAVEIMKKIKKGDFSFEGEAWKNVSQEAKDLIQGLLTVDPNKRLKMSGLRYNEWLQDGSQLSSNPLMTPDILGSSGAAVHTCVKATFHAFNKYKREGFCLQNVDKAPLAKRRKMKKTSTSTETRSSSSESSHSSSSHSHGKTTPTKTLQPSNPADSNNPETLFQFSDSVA
# [9] = molecular target: PIM2 (human) (UniProt Q9P1W9)
# Sequence of PIM2 (human) (Q9P1W9 whole entry, looked up): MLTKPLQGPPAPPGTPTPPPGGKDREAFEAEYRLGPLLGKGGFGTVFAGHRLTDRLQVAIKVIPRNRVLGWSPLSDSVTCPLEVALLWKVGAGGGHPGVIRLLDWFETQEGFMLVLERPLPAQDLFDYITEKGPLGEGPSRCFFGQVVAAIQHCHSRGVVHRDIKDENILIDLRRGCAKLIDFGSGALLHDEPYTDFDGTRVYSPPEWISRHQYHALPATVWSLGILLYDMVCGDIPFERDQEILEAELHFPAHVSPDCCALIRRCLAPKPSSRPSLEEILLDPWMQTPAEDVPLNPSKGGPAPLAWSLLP
# [10] = molecular target: RPS6KA3 KD1 KD2 (human) (UniProt P51812)
# Sequence of RPS6KA3 KD1 KD2 (human) (P51812 whole entry, looked up): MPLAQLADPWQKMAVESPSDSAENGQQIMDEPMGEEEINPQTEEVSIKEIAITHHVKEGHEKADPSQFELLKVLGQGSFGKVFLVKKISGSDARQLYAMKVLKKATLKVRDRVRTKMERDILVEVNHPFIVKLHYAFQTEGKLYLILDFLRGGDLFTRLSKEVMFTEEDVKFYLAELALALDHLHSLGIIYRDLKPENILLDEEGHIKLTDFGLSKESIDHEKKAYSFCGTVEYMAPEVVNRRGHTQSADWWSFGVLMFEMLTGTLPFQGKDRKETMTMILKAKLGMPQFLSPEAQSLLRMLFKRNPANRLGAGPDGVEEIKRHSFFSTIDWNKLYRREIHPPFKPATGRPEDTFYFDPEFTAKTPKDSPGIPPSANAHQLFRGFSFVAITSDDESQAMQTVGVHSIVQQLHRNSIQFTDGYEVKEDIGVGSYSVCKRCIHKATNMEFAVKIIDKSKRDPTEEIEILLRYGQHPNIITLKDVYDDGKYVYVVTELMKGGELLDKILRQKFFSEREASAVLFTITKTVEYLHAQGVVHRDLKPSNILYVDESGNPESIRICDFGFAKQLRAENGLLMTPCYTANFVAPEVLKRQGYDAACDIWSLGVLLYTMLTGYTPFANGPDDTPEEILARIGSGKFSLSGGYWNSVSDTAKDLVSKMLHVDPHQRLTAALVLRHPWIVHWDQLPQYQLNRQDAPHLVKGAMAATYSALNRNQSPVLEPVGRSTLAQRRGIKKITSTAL
# [11] = molecular target: MAPK14 (human) (UniProt Q16539)
# [12] = molecular target: HIPK3 (human) (UniProt Q9H422)
# [13] = molecular target: MAPK15 (human) (UniProt Q8TD08)
# [14] = molecular target: MAPKAPK2 (human) (UniProt P49137)
# Sequence of MAPKAPK2 (human) (P49137 whole entry, looked up): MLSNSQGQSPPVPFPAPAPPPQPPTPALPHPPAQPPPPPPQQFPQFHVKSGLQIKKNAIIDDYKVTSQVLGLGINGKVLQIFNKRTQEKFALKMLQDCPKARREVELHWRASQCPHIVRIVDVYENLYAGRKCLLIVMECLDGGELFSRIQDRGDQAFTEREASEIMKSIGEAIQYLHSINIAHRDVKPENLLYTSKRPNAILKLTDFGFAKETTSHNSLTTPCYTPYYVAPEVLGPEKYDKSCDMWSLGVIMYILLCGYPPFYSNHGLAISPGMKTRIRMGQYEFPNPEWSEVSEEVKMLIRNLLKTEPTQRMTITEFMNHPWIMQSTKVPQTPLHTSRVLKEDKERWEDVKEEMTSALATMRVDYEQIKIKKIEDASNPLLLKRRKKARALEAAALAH
# [15] = test system: PAK2 (human), Q13177 [T402E]
# Sequence of PAK2 (human), Q13177 [T402E] (Q13177 whole entry T402E, looked up): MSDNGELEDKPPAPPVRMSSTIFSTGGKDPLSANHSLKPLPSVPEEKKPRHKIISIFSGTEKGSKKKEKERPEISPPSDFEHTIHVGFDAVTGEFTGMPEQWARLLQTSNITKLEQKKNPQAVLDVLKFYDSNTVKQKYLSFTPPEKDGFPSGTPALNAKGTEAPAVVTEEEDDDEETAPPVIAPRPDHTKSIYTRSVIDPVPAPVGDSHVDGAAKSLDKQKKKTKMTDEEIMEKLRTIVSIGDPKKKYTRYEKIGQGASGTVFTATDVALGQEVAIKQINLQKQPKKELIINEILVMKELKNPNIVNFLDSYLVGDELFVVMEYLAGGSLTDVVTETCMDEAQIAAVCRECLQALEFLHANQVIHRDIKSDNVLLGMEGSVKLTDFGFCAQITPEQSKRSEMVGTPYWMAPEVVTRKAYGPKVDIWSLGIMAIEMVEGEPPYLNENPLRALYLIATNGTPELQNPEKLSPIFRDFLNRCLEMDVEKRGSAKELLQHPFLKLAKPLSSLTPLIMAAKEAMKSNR
# [16] = molecular target: SRPK1 (human) (UniProt Q96SB4)
# [17] = molecular target: DYRK1A (human) (UniProt Q13627)
# [18] = molecular target: MST4 (human) (UniProt Q9P289)
# [19] = molecular target: CHEK1 (human) (UniProt O14757)
# [20] = molecular target: PIM3 (human) (UniProt Q86V86)
# [21] = molecular target: CSNK1D (human) (UniProt P48730)
# Sequence of CSNK1D (human) (P48730 whole entry, looked up): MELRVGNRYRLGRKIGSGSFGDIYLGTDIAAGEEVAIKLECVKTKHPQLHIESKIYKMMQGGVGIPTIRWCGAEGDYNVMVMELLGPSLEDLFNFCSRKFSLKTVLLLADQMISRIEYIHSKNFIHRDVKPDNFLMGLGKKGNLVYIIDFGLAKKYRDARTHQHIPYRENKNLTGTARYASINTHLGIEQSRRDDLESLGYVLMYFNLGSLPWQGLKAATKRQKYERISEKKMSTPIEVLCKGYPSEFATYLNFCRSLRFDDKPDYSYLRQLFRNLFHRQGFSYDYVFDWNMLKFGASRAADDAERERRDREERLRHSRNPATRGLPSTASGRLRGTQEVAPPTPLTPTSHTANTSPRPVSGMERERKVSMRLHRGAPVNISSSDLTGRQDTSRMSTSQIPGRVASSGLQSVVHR
# [22] = molecular target: IGF1R (human) (UniProt P08069)
# [23] = molecular target: IKBKE (human) (UniProt Q14164)
# [24] = molecular target: CAMKK2 (human) (UniProt Q96RR4)
# Sequence of CAMKK2 (human) (Q96RR4 whole entry, looked up): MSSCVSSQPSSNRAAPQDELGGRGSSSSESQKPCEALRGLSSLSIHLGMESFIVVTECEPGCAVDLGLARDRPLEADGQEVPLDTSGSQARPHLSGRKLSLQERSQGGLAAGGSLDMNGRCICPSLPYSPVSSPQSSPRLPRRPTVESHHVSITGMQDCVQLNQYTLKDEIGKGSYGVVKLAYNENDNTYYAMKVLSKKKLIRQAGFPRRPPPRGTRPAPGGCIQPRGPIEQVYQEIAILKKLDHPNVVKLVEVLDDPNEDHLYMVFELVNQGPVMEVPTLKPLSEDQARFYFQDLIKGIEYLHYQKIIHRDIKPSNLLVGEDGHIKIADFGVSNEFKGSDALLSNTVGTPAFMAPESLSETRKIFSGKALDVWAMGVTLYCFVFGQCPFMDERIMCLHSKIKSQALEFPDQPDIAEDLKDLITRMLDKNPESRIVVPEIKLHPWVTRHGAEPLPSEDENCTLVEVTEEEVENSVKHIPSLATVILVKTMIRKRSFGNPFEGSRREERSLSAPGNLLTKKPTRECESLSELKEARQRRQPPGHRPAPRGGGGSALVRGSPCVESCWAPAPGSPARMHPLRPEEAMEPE
# [25] = molecular target: PAK6 (human) (UniProt Q9NQU5)
# [26] = molecular target: NEK6 (human) (UniProt Q9HC98)
# [27] = molecular target: NEK2 (human) (UniProt P51955)
# [28] = test system: AKT2 (human), P31751 [S474D]
# Sequence of AKT2 (human), P31751 [S474D] (P31751 whole entry S474D, looked up): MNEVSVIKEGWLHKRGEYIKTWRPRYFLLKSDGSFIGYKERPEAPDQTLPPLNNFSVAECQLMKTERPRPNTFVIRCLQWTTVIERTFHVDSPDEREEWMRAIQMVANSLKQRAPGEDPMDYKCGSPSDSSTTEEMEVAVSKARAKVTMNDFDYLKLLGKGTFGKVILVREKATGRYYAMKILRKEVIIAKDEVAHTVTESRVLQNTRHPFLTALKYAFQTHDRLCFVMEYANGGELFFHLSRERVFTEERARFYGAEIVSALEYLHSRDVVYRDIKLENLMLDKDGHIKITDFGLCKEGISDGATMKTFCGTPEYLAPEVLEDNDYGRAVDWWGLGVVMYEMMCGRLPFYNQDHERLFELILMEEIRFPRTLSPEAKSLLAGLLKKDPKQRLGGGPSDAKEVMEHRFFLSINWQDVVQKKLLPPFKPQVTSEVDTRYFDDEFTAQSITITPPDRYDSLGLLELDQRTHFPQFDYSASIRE
# [29] = molecular target: MAPK12 (human) (UniProt P53778)
# Sequence of MAPK12 (human) (P53778 whole entry, looked up): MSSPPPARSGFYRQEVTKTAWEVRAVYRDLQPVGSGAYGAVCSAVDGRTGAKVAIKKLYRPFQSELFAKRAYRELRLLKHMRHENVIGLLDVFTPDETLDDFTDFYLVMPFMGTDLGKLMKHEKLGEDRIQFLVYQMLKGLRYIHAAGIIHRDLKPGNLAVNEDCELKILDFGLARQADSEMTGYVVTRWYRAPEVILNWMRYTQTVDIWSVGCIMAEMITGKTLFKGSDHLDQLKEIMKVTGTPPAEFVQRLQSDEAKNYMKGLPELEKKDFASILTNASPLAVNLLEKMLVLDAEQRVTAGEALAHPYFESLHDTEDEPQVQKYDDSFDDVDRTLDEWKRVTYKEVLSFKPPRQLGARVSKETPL
# [30] = molecular target: PLK1 (human) (UniProt P53350)
# [31] = molecular target: MARK2 (human) (UniProt Q7KZI7)
# [32] = molecular target: MARK1 (human) (UniProt Q9P0L2); settings: compound 100.0 µM
# [33] = molecular target: EPHA4 (human) (UniProt P54764); settings: compound 100.0 µM
# [34] = molecular target: MAP3K7 TAB1 (human) (UniProt Q15750+O43318); settings: compound 100.0 µM
structure (smiles),measurement,setting,value
CN1C(=O)[C@@H](Cc2c[nH]c3ccccc23)NC1=S,residual activity,[1]; compound 1.0 µM,91%
same,residual activity,[1]; compound 10.0 µM,90%
same,residual activity,[2]; compound 1.0 µM,109%
same,residual activity,[2]; compound 10.0 µM,99%
same,residual activity,[3]; compound 10.0 µM,93%
same,residual activity,[4]; compound 1.0 µM,119%
same,residual activity,[4]; compound 10.0 µM,99%
same,residual activity,[5]; compound 1.0 µM,95%
same,residual activity,[5]; compound 10.0 µM,97%
same,residual activity,[6]; compound 10.0 µM,112%
same,residual activity,[7]; compound 1.0 µM,99%
same,residual activity,[7]; compound 10.0 µM,98%
same,residual activity,[8]; compound 1.0 µM,78%
same,residual activity,[8]; compound 10.0 µM,90%
same,residual activity,[9]; compound 1.0 µM,95%
same,residual activity,[9]; compound 10.0 µM,105%
same,residual activity,[10]; compound 1.0 µM,91%
same,residual activity,[10]; compound 10.0 µM,92%
same,residual activity,[11]; compound 1.0 µM,97%
same,residual activity,[11]; compound 10.0 µM,102%
same,residual activity,[12]; compound 1.0 µM,111%
same,residual activity,[12]; compound 10.0 µM,102%
same,residual activity,[13]; compound 1.0 µM,98%
same,residual activity,[13]; compound 10.0 µM,103%
same,residual activity,[14]; compound 1.0 µM,85%
same,residual activity,[14]; compound 10.0 µM,96%
same,residual activity,[15]; compound 1.0 µM,102%
same,residual activity,[15]; compound 10.0 µM,94%
same,residual activity,[16]; compound 1.0 µM,93%
same,residual activity,[16]; compound 10.0 µM,89%
same,residual activity,[17]; compound 1.0 µM,81%
same,residual activity,[17]; compound 10.0 µM,94%
same,residual activity,[18]; compound 1.0 µM,103%
same,residual activity,[18]; compound 10.0 µM,112%
same,residual activity,[19]; compound 1.0 µM,109%
same,residual activity,[19]; compound 10.0 µM,103%
same,residual activity,[20]; compound 1.0 µM,88%
same,residual activity,[20]; compound 10.0 µM,85%
same,residual activity,[21]; compound 1.0 µM,94%
same,residual activity,[21]; compound 10.0 µM,101%
same,residual activity,[22]; compound 1.0 µM,86%
same,residual activity,[22]; compound 10.0 µM,120%
same,residual activity,[23]; compound 1.0 µM,90%
same,residual activity,[23]; compound 10.0 µM,86%
same,residual activity,[24]; compound 1.0 µM,91%
same,residual activity,[24]; compound 10.0 µM,86%
same,residual activity,[25]; compound 1.0 µM,93%
same,residual activity,[25]; compound 10.0 µM,99%
same,residual activity,[26]; compound 1.0 µM,89%
same,residual activity,[26]; compound 10.0 µM,119%
same,residual activity,[27]; compound 1.0 µM,86%
same,residual activity,[27]; compound 10.0 µM,86%
same,residual activity,[28]; compound 1.0 µM,79%
same,residual activity,[28]; compound 10.0 µM,68%
same,residual activity,[29]; compound 1.0 µM,111%
same,residual activity,[29]; compound 10.0 µM,101%
same,residual activity,[30]; compound 1.0 µM,81%
same,residual activity,[30]; compound 10.0 µM,88%
same,residual activity,[31]; compound 1.0 µM,110%
same,residual activity,[31]; compound 10.0 µM,109%
Cc1cc(N=Nc2cc(S(=O)(=O)O)c(C)cc2C)c(N)cc1O,residual activity,[1]; compound 100.0 µM,126%
same,residual activity,[3]; compound 100.0 µM,98%
same,residual activity,[4]; compound 100.0 µM,87%
same,residual activity,[5]; compound 100.0 µM,70%
same,residual activity,[6]; compound 100.0 µM,46%
same,residual activity,[7]; compound 100.0 µM,52%
same,residual activity,[8]; compound 100.0 µM,84%
same,residual activity,[9]; compound 100.0 µM,58%
same,residual activity,[10]; compound 100.0 µM,80%
same,residual activity,[32],99%
same,residual activity,[11]; compound 100.0 µM,58%
same,residual activity,[12]; compound 100.0 µM,74%
same,residual activity,[13]; compound 100.0 µM,65%
same,residual activity,[14]; compound 100.0 µM,107%
same,residual activity,[15]; compound 100.0 µM,100%
same,residual activity,[16]; compound 100.0 µM,59%
same,residual activity,[17]; compound 100.0 µM,113%
same,residual activity,[18]; compound 100.0 µM,67%
same,residual activity,[19]; compound 100.0 µM,196%
same,residual activity,[20]; compound 100.0 µM,45%
same,residual activity,[33],92%
same,residual activity,[22]; compound 100.0 µM,109%
same,residual activity,[23]; compound 100.0 µM,94%
same,residual activity,[24]; compound 100.0 µM,99%
same,residual activity,[25]; compound 100.0 µM,96%
same,residual activity,[27]; compound 100.0 µM,118%
same,residual activity,[34],31%
same,residual activity,[28]; compound 100.0 µM,37%
same,residual activity,[29]; compound 100.0 µM,108%
same,residual activity,[30]; compound 100.0 µM,79%
same,residual activity,[31]; compound 100.0 µM,98%
O=C(O)c1cc(N=Nc2ccc(S(=O)(=O)Nc3ccccn3)cc2)ccc1O,residual activity,[1]; compound 1.0 µM,94%
same,residual activity,[1]; compound 10.0 µM,90%
same,residual activity,[2]; compound 1.0 µM,104%
same,residual activity,[2]; compound 10.0 µM,97%
same,residual activity,[3]; compound 1.0 µM,103%
same,residual activity,[3]; compound 10.0 µM,110%
same,residual activity,[4]; compound 1.0 µM,104%
same,residual activity,[4]; compound 10.0 µM,96%
same,residual activity,[5]; compound 1.0 µM,89%
same,residual activity,[5]; compound 10.0 µM,76%
same,residual activity,[6]; compound 1.0 µM,115%
same,residual activity,[6]; compound 10.0 µM,95%
same,residual activity,[7]; compound 1.0 µM,76%
same,residual activity,[7]; compound 10.0 µM,54%
same,residual activity,[8]; compound 1.0 µM,109%
same,residual activity,[8]; compound 10.0 µM,95%
same,residual activity,[9]; compound 1.0 µM,98%
same,residual activity,[9]; compound 10.0 µM,77%
same,residual activity,[10]; compound 1.0 µM,97%
same,residual activity,[10]; compound 10.0 µM,91%
same,residual activity,[11]; compound 1.0 µM,105%
same,residual activity,[11]; compound 10.0 µM,101%
same,residual activity,[12]; compound 1.0 µM,98%
same,residual activity,[12]; compound 10.0 µM,103%
same,residual activity,[13]; compound 1.0 µM,111%
same,residual activity,[13]; compound 10.0 µM,109%
same,residual activity,[14]; compound 1.0 µM,100%
same,residual activity,[14]; compound 10.0 µM,106%
same,residual activity,[15]; compound 1.0 µM,108%
same,residual activity,[15]; compound 10.0 µM,94%
same,residual activity,[16]; compound 1.0 µM,106%
same,residual activity,[16]; compound 10.0 µM,104%
same,residual activity,[17]; compound 1.0 µM,94%
same,residual activity,[17]; compound 10.0 µM,85%
same,residual activity,[18]; compound 1.0 µM,102%
same,residual activity,[18]; compound 10.0 µM,104%
same,residual activity,[19]; compound 1.0 µM,104%
same,residual activity,[19]; compound 10.0 µM,109%
same,residual activity,[20]; compound 1.0 µM,63%
same,residual activity,[20]; compound 10.0 µM,18%
same,residual activity,[21]; compound 1.0 µM,103%
same,residual activity,[21]; compound 10.0 µM,95%
same,residual activity,[22]; compound 1.0 µM,111%
same,residual activity,[22]; compound 10.0 µM,98%
same,residual activity,[23]; compound 1.0 µM,92%
same,residual activity,[23]; compound 10.0 µM,112%
same,residual activity,[24]; compound 1.0 µM,127%
same,residual activity,[24]; compound 10.0 µM,122%
same,residual activity,[25]; compound 1.0 µM,99%
same,residual activity,[25]; compound 10.0 µM,99%
same,residual activity,[26]; compound 1.0 µM,98%
same,residual activity,[26]; compound 10.0 µM,97%
same,residual activity,[27]; compound 10.0 µM,97%
same,residual activity,[28]; compound 10.0 µM,94%
same,residual activity,[29]; compound 1.0 µM,97%
same,residual activity,[29]; compound 10.0 µM,100%
same,residual activity,[30]; compound 1.0 µM,106%
same,residual activity,[30]; compound 10.0 µM,102%
same,residual activity,[31]; compound 1.0 µM,108%
same,residual activity,[31]; compound 10.0 µM,107%
